Columns and labels:
SRC = SRC (Homo sapiens, UniProt P12931); assay: In vitro kinase selectivity assay, SRC (Z'-Lyte); format: biochemical; details: read-out: SRC kinase inhibitory activity grade
Protocol: (§1) The assay platform for EGFR and ITK kinase activities was established using time-resolved fluorescence resonance energy transfer-based method; the assay platform for LCK, SRC and LYN kinase activities was established using Z′-Lyte method; and the assay platform for TEC and JAK3 kinase activities was established using Lance Ultra method. The inhibitory effects of the compounds disclosed herein on different kinase activities were tested separately for each compound at 11 concentrations. The IC50 value of each compound was calculated using Graphpad Prism software.

Recombinant Btk = Recombinant Btk (Homo sapiens, UniProt Q06187); assay: Kinase activity (BTK) inhibition assay, TR-FRET; format: biochemical; details: read-out: BTK kinase inhibitory activity grade (A/B/C)
Recombinant Btk, sequence (Q06187 whole entry): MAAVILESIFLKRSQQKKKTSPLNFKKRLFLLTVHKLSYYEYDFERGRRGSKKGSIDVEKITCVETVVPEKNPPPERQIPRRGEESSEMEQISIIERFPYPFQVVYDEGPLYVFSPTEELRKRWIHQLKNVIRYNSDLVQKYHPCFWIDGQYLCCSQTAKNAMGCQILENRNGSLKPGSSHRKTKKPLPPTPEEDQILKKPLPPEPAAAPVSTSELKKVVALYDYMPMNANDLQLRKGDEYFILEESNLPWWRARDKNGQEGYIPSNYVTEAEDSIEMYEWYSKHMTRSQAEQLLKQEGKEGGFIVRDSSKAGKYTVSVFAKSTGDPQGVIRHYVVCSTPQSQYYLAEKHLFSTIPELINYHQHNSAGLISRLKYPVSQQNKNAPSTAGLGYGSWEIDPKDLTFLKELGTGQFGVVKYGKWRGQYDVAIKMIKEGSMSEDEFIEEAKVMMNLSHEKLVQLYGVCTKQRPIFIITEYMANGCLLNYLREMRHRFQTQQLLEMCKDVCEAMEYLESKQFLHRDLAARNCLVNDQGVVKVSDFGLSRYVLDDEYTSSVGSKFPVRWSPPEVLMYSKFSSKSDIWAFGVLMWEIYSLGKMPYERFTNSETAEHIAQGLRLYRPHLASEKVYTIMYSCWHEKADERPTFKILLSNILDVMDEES
Protocol: Kinase Activity (BTK) Inhibition Assay
The inhibitory effects of the compounds disclosed herein on BTK kinase activity were tested in an assay based on a time resolved fluorescence resonance energy transfer (TR-FRET) method. Recombinant Btk was pre-incubated with the compound disclosed herein in an assay buffer containing 50 mM. Tris pH 7.4, 10 mM MgCl2, 2 mM MnCl2, 0.1 mM EDTA, 1 mM DTT, 20 nM SEB, 0.1% BSA, 0.005% tween-20 at room temperature for 1 hour. The reaction was initiated by the addition of ATP (at the ATP Km concentration) and the peptide substrate (Biotin-[…]-NH2). After incubation for 1 hour at room temperature, an equal volume of stop solution containing 50 mM HEPES pH 7.0, 800 mM KF, 20 mM EDTA, 0.1% BSA, p-Tyr66 antibody linked with Eu cryptate and streptavidin-labeled XL665 was added to stop the reaction. The plate was incubated for an additional hour at room temperature and then the TR-FRET signal was read on a BMG PHERAstar FS instrument (ex337 nm, em 620 nm/665 nm). Based on the ratio of the signal of fluorescence at […] to 665 nm, the enzyme activity was calculated with an increased compound concentration. IC50 of each compound was obtained by fitting the data to the four-parameter equation of Graphpad Prism software.

LYN = LYN (Homo sapiens, UniProt P07948); assay: In vitro kinase selectivity assay, LYN (Z'-Lyte); format: biochemical; details: read-out: LYN kinase inhibitory activity grade
LYN, sequence (P07948 whole entry, species assumed): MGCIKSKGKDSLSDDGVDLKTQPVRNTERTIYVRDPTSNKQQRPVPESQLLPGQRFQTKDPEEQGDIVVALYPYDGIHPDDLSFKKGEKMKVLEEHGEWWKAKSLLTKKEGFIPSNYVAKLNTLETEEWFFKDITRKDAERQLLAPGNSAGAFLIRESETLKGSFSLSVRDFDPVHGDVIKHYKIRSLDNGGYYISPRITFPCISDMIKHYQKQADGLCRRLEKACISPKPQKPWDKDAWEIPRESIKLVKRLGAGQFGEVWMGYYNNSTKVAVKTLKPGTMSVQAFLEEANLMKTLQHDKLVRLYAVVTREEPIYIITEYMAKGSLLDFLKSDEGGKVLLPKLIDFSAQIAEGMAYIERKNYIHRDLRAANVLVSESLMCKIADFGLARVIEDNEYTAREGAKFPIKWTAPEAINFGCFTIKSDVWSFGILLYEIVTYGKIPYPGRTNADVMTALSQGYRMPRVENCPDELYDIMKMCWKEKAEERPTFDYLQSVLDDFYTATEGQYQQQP
Protocol: as §1

ITK = biological target: T1, ITK (Homo sapiens, UniProt Q08881); assay: In vitro kinase selectivity assay, ITK (TR-FRET); format: biochemical; details: read-out: ITK kinase inhibitory activity grade
T1 sequence (Q08881 1-620): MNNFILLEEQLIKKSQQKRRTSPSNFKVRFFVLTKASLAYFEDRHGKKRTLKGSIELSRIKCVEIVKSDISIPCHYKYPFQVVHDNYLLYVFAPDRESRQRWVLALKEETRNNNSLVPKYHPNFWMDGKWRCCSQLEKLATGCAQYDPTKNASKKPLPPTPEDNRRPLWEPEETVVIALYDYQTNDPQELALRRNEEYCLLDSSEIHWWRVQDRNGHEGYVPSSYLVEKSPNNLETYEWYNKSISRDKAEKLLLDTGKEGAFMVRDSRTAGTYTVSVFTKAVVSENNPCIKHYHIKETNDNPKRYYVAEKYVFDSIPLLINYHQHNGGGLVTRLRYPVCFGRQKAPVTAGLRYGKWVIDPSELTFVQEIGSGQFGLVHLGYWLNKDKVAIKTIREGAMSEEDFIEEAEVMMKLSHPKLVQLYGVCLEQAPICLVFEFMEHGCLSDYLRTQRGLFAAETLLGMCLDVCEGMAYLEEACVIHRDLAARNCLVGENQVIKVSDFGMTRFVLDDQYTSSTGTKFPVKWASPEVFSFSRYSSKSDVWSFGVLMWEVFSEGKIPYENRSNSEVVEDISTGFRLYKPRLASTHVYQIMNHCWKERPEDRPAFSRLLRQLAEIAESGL
Protocol: as §1

[1] = tested on: diffuse large B-cell lymphoma cell line TMD-8; assay: Pharmacodynamic assay, TMD-8 xenograft in NOD.SCID mice; format: in vivo; details: p.o. daily for 21 days
Protocol: Severe immunodeficiency NOD.SCID mice were purchased from Beijing Vital River Laboratory Animal Technology Co., Ltd., and were housed in SPF grade animal room. After TMD-8 cells were cultured to the sufficient amount, the cells were collected by centrifugation and washed twice with PBS. Finally, the cells were resuspended in serum-free RPMI 1640 medium plus Matrigel (1:1 v/v). 0.2 ml of cell suspension was injected subcutaneously on the right flank of each mouse using 1 ml syringe and 25 G syringe needle. The tumor size was measured with a caliper after about one week post injection. The tumor volume was calculated according to the following formula: tumor volume=(length×width^2)/2. When the tumor volume reached about 100-200 mm^3, the mice were grouped and p.o. administered daily for 21 days.

LCK = LCK (Homo sapiens, UniProt P06239); assay: In vitro kinase selectivity assay, LCK (Z'-Lyte); format: biochemical; details: read-out: LCK kinase inhibitory activity grade
LCK, sequence (P06239 whole entry, species assumed): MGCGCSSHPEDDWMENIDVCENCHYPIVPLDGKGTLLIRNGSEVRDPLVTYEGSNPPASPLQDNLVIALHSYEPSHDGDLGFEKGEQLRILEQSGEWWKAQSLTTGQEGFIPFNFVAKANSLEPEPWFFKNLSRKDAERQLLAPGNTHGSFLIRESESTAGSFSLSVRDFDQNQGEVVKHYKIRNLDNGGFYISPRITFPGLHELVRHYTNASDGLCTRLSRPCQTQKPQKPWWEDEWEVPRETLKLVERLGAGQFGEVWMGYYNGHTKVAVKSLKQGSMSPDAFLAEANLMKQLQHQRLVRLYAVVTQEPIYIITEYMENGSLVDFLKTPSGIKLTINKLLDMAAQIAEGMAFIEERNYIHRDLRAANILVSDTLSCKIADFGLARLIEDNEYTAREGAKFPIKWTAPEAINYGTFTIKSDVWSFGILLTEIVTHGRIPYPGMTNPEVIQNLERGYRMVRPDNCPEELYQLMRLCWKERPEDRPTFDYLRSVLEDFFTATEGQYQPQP
Protocol: as §1

EGFR = EGFR (Homo sapiens, UniProt P00533); assay: In vitro kinase selectivity assay, EGFR (TR-FRET); format: biochemical; details: read-out: EGFR kinase inhibitory activity grade
EGFR, sequence (P00533 25-1210): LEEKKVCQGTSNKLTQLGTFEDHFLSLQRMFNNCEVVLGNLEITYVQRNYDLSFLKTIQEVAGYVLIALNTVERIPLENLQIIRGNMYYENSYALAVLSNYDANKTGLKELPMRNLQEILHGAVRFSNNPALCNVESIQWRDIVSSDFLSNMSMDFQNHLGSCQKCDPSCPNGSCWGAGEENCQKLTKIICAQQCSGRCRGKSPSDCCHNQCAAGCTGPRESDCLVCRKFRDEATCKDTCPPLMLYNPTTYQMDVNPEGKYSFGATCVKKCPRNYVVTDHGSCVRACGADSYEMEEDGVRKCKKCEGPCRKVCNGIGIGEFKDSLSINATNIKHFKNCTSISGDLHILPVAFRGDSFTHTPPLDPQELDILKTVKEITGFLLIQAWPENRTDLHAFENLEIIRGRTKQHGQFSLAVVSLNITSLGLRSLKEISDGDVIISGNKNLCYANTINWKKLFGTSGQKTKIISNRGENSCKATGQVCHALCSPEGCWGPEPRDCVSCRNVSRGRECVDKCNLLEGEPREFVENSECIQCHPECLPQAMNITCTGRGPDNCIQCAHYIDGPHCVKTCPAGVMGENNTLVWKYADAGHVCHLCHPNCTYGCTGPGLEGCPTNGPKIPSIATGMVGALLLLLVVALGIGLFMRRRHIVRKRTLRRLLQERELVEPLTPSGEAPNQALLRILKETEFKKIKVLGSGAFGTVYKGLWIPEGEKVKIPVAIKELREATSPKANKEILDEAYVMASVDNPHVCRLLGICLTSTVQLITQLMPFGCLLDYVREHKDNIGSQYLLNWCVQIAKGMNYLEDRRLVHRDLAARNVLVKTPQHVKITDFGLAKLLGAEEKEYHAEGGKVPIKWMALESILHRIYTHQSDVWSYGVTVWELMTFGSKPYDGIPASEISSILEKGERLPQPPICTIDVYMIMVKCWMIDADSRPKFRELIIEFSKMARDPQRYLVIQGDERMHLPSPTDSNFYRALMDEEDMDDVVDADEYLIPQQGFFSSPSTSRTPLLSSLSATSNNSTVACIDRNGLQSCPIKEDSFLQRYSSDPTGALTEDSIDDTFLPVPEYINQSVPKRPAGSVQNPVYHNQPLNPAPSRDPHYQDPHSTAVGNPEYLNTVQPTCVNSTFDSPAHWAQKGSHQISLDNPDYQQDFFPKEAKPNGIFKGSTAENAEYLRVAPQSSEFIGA
Protocol: as §1

TEC = biological target: T2, TEC (Homo sapiens, UniProt P42680); assay: In vitro kinase selectivity assay, TEC (Lance Ultra); format: biochemical; details: read-out: TEC kinase inhibitory activity grade
T2 sequence (P42680 1-631): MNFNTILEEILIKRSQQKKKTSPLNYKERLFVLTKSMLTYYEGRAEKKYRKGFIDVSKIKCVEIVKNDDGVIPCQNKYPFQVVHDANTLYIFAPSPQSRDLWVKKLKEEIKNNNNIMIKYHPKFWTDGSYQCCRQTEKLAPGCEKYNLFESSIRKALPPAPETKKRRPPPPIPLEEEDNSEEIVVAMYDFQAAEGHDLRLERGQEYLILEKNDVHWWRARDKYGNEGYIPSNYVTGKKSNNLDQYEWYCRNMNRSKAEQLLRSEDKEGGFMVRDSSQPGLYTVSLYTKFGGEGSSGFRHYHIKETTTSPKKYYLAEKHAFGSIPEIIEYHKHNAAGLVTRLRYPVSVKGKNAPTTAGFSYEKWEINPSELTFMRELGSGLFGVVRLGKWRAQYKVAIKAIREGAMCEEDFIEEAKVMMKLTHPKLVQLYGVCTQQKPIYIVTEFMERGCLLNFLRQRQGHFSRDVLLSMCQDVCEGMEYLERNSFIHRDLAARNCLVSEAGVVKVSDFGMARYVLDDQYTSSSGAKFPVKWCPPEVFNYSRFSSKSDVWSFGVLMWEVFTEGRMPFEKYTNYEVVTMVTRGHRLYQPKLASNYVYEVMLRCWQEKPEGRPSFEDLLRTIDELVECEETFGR
Protocol: as §1

SRC, sequence (P12931 whole entry, species assumed): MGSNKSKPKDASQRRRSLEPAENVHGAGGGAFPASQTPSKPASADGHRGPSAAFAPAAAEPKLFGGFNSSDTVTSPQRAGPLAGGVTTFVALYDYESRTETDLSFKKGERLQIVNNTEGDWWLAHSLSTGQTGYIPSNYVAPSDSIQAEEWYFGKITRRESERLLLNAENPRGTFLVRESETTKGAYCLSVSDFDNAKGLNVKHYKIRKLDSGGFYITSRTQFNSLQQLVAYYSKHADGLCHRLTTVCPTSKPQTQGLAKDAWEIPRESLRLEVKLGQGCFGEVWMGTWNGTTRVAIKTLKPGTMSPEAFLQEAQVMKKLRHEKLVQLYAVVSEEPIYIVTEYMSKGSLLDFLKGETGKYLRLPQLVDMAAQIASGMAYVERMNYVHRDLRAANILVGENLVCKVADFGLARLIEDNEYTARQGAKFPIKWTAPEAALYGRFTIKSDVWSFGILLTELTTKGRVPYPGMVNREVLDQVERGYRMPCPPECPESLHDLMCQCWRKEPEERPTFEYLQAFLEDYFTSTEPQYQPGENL

## N#CN1C[C@H](n2nc(-c3ccc(Oc4ccc(Cl)cn4)cc3)c(C(N)=O)c2N)CCC12CC2 [WS-413, (R)-5-amino-3-(4-((5-chloropyridin-2-yl)oxy)phenyl)-1-(4-cyano-4-azaspiro[2.5]oct-6-yl)-1H-pyrazole-4-carboxamide]
SRC
  IC50: > 1000 nM
Recombinant Btk
  IC50: < 100 nM
LYN
  IC50: > 1000 nM
ITK
  IC50: > 1000 nM
[1]
  growth of TMD-8 tumor in vivo: significantly inhibited the growth
LCK
  IC50: > 1000 nM
EGFR
  IC50: 100 to 1000 nM
TEC
  IC50: < 100 nM

Reference: patent US10882843B2, “5-aminopyrazole carboxamide derivative as BTK inhibitor and preparation method and pharmaceutical composition thereof” (SUZHOU SINOVENT PHARMACEUTICALS CO., LTD., priority 2016, dated 2021)
